Data reported in patent US20070167499A1, “Biaryl linked hydroxamates: preparation and pharmaceutical applications” (A*BIO Pte Ltd., priority 2003, published 2007).
Read-outs that look alike come from different tables or passages of the source.

Legend:
HDAC8 enzyme (GST-HDAC8) = biological target: T1, HDAC8 enzyme (GST-HDAC8) (Homo sapiens, UniProt Q9BY41); assay: In vitro HDAC assay for determination of IC50 values (BIOMOL fluorescent-based HDAC activity assay), HDAC8; format: biochemical
T1 construct: Amplification of human HDAC1 and HDAC8 coding region from this cDNA library; made in house; host or cells: SF9 insect cells (baculovirus, pFASTBAC vector)
T1 sequence (Q9BY41 1-377): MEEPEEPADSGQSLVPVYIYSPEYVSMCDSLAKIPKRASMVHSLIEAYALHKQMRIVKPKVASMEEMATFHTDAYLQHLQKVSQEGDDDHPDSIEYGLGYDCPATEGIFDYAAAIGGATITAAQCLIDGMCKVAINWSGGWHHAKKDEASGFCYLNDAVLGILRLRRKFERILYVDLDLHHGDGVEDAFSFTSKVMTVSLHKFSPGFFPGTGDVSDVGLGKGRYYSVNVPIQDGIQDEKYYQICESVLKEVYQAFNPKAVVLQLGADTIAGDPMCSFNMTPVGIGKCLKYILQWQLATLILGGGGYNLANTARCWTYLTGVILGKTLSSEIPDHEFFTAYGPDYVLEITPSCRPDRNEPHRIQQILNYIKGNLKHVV
Experimental: Recombinant GST-HDAC1 and GST-HDAC-8 Protein expression and purification
Human cDNA library was prepared using cultured SW620 cells. Amplification of human HDAC1 and HDAC8 coding region from this cDNA library was cloned separately into the baculovirus expression pDEST20 vector and pFASTBAC vector respectively (GATEWAY Cloning Technology, Invitrogen Pte Ltd). […] Recombinant baculovirus was prepared using the Bac-To-Bac method following the manufacturer's instruction (Invitrogen Pte Ltd).
Expression of GST-HDAC1 or HTGST-HDAC8 was done by infecting SF9 cells (Invitrogen Pte Ltd) with pDEST20-HDAC1 or pFASTBAC-GST-HDAC8 baculovirus at MOI=1 for 48 h. Soluble cell lysate was incubated with pre-equilibrated Glutathione Sepharose 4B beads (Amersham) at 4° C. for 2 h. The beads were washed with PBS buffer for 3 times. The GST-HDAC1 protein or GST-HDAC8 protein was eluted by elution buffer containing 50 mM Tris, pH8.0, 150 mM NaCl, 1% Triton X-100 and 10 mM or 20 mM reduced Glutathione. The purified GST-HDAC1 protein or purified GST-HDAC8 protein was dialyzed with HDAC storage buffer containing 10 mM Tris, pH7.5, 100 mM NaCl and 3 mM MgCl2. 20% Glycerol was added to purified GST-HDAC1 protein or purified GST-HDAC8 before storage at −80° C.
In vitro HDAC assay for determination of IC50 values
The assay has been carried out in 96 well format and the BIOMOL fluorescent-based HDAC activity assay has been applied. […] Flur de lys Developer was added and the reaction was incubated for 10 min. Briefly, deacetylation of the substrate sensitizes it to the developer, which then generates a fluorophore The fluorophore is excited with 360 nm light and the emitted light (460 nm) is detected on a fluorometric plate reader (Tecan Ultra Microplate detection system, Tecan Group Ltd.).
The analytical software, Prism 3.0® (GraphPad Software Inc) has been used to generate IC50 from a series of data.

[1] = test system: acetylated H3 in Colo205 cells; assay: Histone H3 acetylation assay (western-blot); format: cell-based, human; parameters: key: “Active” means accumulation of acetylated histone was observed when compared with control (without compound); settings: for Histone 3 acetylation: Colo205 cells, 0.1, 1, 5 and 10 μM, after 24 h
Experimental: Histone H3, H4 and H2A acetylation assay
A hallmark of histone deacetylase (HDAC) inhibition is the increase in the acetylation level of histones. Histone acetylation, including H3, H4 and H2A can be detected by immuno-blotting (western-blot). Colo205 cells, approximately 1.5×10^6 cells/10 cm dish, were seeded in the previously described medium, cultivated for 24 h and subsequently treated with HDAC inhibitory agents at 0.1, 1, 5 and 10 μM final concentration. […] The protein concentration was quantified using BCA method (Sigma Pte Ltd). The protein lysate was separated using 4-12% bis-tris SDS-PAGE gel (Invitrogen Pte Ltd) and was transferred onto PVDF membrane (BioRad Pte Ltd). The membrane was probed separately using primary antibody specific for acetylated H3, acetylated H4 or acetylated H2A (Upstate Pte Ltd). The detection antibody, goat anti rabbit antibody conjugated with horse radish peroxidase (HRP) was used according to the manufacturing instruction (Pierce Pte Ltd). After removing the detection antibody from the membrane, an enhanced chemiluminescent substrate for detection of HRP (Pierce Pte Ltd) was added onto the membrane. After removing the substrate, the membrane was exposed to an X-ray film (Kodak) for 1 sec-20 mins. The X-ray film was developed using the X-ray film processor. The density of each band observed on the developed film could be analysed using UVP Bioimaging software (UVP, Inc, Upland, Calif.). The values were then normalized against the density of actin in the corresponding samples to obtain the expression of the protein.

NCI H552 = assay: Cell-based proliferation assay for determination of GI50 values, lung cancer cell line; settings: Homo sapiens; 96 h treatment, cyquant cell proliferation assay; read-out: Cellular activities GI50, NCI H552
Experimental: Cell-based Proliferation assay for determination of GI50 values
Three different cancer cell lines were obtained from ATCC: Human colon cancer cell line (Colo205), human breast cancer cell lines (MDA-MB435), and human lung cancer cell line (NCl-H522). Colo205 cells and NCl-H522 were cultivated in RPMI 1640 containing 2 mM
L-Glutamine, 5% FBS, 1.0 mM Na Pyruvate. MDA-MB435 cells were cultivated in DMEM containing 2 mM L-Glutamine, 5% FBS. Colo205 cells were seeded in 96-wells plate at 2000 and 5000 cells per well respectively. MDA-MB435 and NCl-H522 cells were seeded in 96-wells plate at 6000 cells per well. The plates were incubated at 37° C., 5% CO2, for 24 h. Cells were treated with compounds at various concentrations for 96 h. Cell growth was then monitored using cyquant cell proliferation assay (Invitrogen Pte Ltd). Dose response curves were plotted to determine GI50 values for the compounds using XL-fit (ID Business Solution, Emeryville, Calif.).

[2] = 500 nM HDAC8 enzyme, 200 μM Flur de lys p53 peptide substrate, room temperature 2 h, read-out: HDAC8 Enzyme Activity, IC50

| IC50 (HDAC8 enzyme (GST-HDAC8); [2]) [nM] | IC50 (HDAC8 enzyme (GST-HDAC8)) [nM] | SMILES | Histone 3 acetylation [1] | GI50 (NCI H552) [nM] | Histone 3 acetylation (after 48 hrs) ([1]; Colo205 cells, after 48 hrs) |
| --- | --- | --- | --- | --- | --- |
| 120 |  | O=C(NO)c1ccc(-c2ccc(CNCCc3ccccn3)cc2)s1 [Example 27] | Active |  |  |
| 100 |  | Nc1nc(-c2ccc(/C=C/C(=O)NO)cc2)cs1 [Example 23, 3-[4-(2-Amino-thiazol-4-yl)-phenyl]-N-hydroxy-acrylamide] | Active | 13300 |  |
|  | 41 | O=C(Cc1ccc(-c2csc(NC(=O)Cc3ccccc3)n2)s1)NO [Example 1, N-Hydroxy-2-[5-(2-phenylacetylamino-thiazol-4-yl)-thiophen-2-yl]-acetamide] |  | 2360 | Active (after 48 hrs) |
| 16 |  | O=C(NO)c1ccc(-c2ccc(CNCCc3ccccc3)cc2)s1 [Example 26, 5-[4-(Phenethylamino-methyl)-phenyl]-thiophene-2-carboxylic acid hydroxyamide] | Active |  |  |
